Reference: PMC4249368 (Antimicrobial Agents and Chemotherapy, 2014)
Converted amounts (≈) assume the structure as drawn. “Also recorded” adds a separate entry of the source.

Experiments:
[1] = tested on: MSSA ATCC 25923; settings: for MIC in the presence of 50% human serum: MHB with 50% human serum, broth microdilution
Method: MSSA ATCC 25923 was purchased from the American Type Culture Collection (Manassas, VA). Mueller-Hinton broth (MHB; Bacto Laboratories Pty. Ltd.) was used to grow MSSA for determination of in vitro antibacterial activity in the presence and absence of 50% human serum (Life Technologies Australia, Melbourne, Australia) and time-kill assays. Luria-Bertani (LB) medium (Difco) and MHB adjusted with Ca^2+ (25 mg/liter) and Mg^2+ (12.5 mg/liter) (CA-MHB) were used for bacterial growth in the membrane depolarization assay and TEM, respectively. The phospholipids used for SPR analysis, 1-palmitoyl-2-oleoyl-sn-glycero-3-phosphoglycerol (POPG), 1-palmitoyl-2-oleoyl-sn-glycero-3-phosphocholine (POPC), and 1-palmitoyl-2-oleoyl-sn-glycero-3-phosphoethanolamine (POPE), were purchased from Auspep Pty. Ltd. (Melbourne, Australia).
MICs against MSSA ATCC 25923 were measured by broth microdilution according to the Clinical and Laboratory Standards Institute (CLSI) M7-A7 methodology ([30]). Briefly, serial 2-fold dilutions of each antibiotic were added into Costar nontreated polystyrene 96-well plates, and each well was inoculated with 50 μl of MSSA in MHB to a final concentration of approximately 5 × 10^5 CFU/ml. […] The dilution representing the MIC and two of the more and less concentrated dilutions were plated out onto Trypticase soy agar plates and enumerated to determine viable CFU/ml ([31]).

[2] = tested on: MSSA ATCC 25923; assay: TEM examination of bacterial ultrastructure; format: cell-based, Staphylococcus aureus; settings: 3 h, 37°C, CA-MHB
Method: After centrifugation (8,000 × rpm, 3 min), the pellets were resuspended in 1 ml of 3% (vol/vol) glutaraldehyde in 0.1 M sodium cacodylate. Glutaraldehyde–fixed samples were washed twice with 0.1 M sodium cacodylate. To postfit cells, 1% (wt/vol) osmium tetraoxide was added. After the wash step, samples were stained with 2% (wt/vol) uranyl acetate in 50% ethanol. Samples were then dehydrated with graded ethanol solutions and infiltrated with Epon resin (ProSciTech, Townsville, Australia). All processes were performed on a Pelco 34700 Biowave microwave oven (Ted Pella Inc., Redding, CA). Ultrathin sections were cut at 60 to 70 nm by using a UC6 ultramicrotome (Leica). The sections were examined in a JEM 1011 TEM operated at 80 kV and photographed using a digital camera.

[3] = tested on: MurG-catalyzed reaction of peptidoglycan biosynthesis; settings: relative to MIC against MSSA ATCC 25923; cited from earlier work
[4] = tested on: transglycosylation step of peptidoglycan biosynthesis; settings: relative to MIC against MSSA ATCC 25923; cited from earlier work
[5] = tested on: MSSA and MRSA strains; settings: cited from earlier work
Text: The importance of the membrane depolarization and bactericidal killing in vivo is difficult to quantify due to the limited published pharmacokinetic (PK) studies ([18], [19]), as well as its nonsystemic oral administration in human clinical trials. In addition, MIC determinations can be highly dependent on plate type, serum, and BSA ([18], [41]).

Row | Molecule | MIC in the presence of 50% human serum ([1]; 24 h, 37°C) | MIC ([1]; MHB, broth microdilution CLSI M7-A7, ~5 × 10^5 CFU/ml, 24 h, 37°C, Costar nontreated polystyrene 96-well plates) | MIC, 10% Human serum ([1]; Table S1, MHB with 10% human serum, Corning NonTC plates) | MIC, 50% Human serum ([1]; Table S1, MHB with 50% human serum, Corning NonTC plates) | MIC, MHB ([1]; Table S1, MHB without serum, Corning NonTC microtitre plates (CLS3370)) | morphological changes by TEM ([2]; 16× MIC) | IC50, MurG-catalyzed reaction [3] | 50% inhibitory concentration (IC50), transglycosylation [4] | effect of 50% human serum on MIC [5] | morphological changes by TEM ([2]; 1× MIC)
1 | CN[C@H](CC(C)C)C(=O)N[C@H]1C(=O)N[C@@H](CC(N)=O)C(=O)N[C@H]2C(=O)N[C@H]3C(=O)N[C@H](C(=O)N[C@H](C(=O)O)c4cc(O)cc(O)c4-c4cc3ccc4O)[C@H](O)c3ccc(c(Cl)c3)Oc3cc2cc(c3O[C@@H]2O[C@H](CO)[C@@H](O)[C@H](O)[C@H]2O[C@H]2C[C@](C)(N)[C@H](O)[C@H](C)O2)Oc2ccc(cc2Cl)[C@H]1O [vancomycin] | 2 µg/mL | 1 µg/mL (≈ 0.69 µM) | 1/2 | 2 µg/mL (≈ 1.38 µM) | 2 µg/mL (≈ 1.38 µM) | did not cause septal deformation or loss of midline | – | – | – | –
2 | ramoplanin | 0.5 µg/mL | – | – | – | – | – | 20 × MIC | 0.25 × MIC | not affected | deformed septa that were slightly thickened, misshapen, and lacked distinct septal midlines; also recorded: appearance of mesosome structures in cell membranes
